We go through 19 compounds from US12637428B2, “Isoquinoline derivatives as SIK2 inhibitors” (Cancer Research Technology Limited, priority 2019, dated 2026).

What all share (assay type): biochemical
One experiment addresses T1, Abl (Homo sapiens, UniProt P00519).
T1 construct: purchased Life Technologies
The experiment is described as follows: Abl kinase assay, IMAP fluorescence polarization. Conditions: 50 or 100 μM ATP, average. Put shortly: (§1)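 Phosphorylation of 100 nM FAM-peptide by 0.6-13 nM kinase (50 or 100 μM ATP, pH 7.2 Tris/MgCl2 buffer, 60 min, RT) was quantified by IMAP fluorescence polarization. Stop reagent: 0.25% IMAP binding reagent, buffer A:B 85:15, except 30:70 for Src.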

The target of another experiment is T2, SIK2 (Homo sapiens, UniProt Q9H0K1).
T2 construct: purchased Life Technologies
T2 sequence (Q9H0K1 whole entry): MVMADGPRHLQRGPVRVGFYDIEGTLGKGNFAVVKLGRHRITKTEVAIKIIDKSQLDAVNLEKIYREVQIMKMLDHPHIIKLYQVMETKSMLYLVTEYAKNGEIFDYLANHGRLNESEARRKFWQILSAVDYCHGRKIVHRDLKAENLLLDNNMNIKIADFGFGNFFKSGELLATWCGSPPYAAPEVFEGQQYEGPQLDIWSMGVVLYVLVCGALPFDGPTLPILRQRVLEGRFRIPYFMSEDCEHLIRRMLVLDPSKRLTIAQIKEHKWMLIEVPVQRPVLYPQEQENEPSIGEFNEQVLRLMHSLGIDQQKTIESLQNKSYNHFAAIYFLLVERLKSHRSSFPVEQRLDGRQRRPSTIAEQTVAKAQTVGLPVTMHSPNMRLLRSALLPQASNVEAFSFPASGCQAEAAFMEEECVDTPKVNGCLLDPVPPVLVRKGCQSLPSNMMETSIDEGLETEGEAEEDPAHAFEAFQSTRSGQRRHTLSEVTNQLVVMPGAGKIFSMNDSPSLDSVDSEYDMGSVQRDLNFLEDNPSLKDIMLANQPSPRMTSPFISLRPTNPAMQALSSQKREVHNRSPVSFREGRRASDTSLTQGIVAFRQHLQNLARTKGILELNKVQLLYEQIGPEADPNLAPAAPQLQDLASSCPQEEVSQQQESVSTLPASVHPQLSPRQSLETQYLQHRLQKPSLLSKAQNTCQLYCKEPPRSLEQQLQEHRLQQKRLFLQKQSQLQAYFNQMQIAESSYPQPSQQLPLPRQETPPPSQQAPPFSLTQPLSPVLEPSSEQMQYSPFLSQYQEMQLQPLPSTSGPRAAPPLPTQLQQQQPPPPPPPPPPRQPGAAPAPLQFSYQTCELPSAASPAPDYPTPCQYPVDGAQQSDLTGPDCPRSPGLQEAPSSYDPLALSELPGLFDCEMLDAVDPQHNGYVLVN
As to the kind of experiment: SIK2 kinase assay, IMAP fluorescence polarization. Conditions: 50 or 100 μM ATP, average. The method in brief:
as §1

In the next experiment the target is T3, Src (Homo sapiens, UniProt P12931).
T3 construct: purchased Life Technologies
T3 sequence (P12931 whole entry): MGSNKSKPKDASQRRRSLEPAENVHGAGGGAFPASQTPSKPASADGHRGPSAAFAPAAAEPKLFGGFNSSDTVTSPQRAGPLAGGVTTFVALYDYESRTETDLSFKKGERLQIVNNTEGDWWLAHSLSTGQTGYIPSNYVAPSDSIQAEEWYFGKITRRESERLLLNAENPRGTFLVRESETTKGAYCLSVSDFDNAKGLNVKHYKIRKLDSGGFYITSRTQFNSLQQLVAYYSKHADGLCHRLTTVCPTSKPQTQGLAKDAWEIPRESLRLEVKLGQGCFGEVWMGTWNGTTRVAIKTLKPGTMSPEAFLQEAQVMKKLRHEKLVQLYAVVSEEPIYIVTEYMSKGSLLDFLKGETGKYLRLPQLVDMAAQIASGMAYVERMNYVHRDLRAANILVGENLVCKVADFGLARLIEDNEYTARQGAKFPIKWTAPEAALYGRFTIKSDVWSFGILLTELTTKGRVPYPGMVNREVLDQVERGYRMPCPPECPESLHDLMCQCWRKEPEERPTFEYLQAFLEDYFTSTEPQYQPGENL
As to the kind of experiment: Src kinase assay, IMAP fluorescence polarization. Conditions: 50 or 100 μM ATP, average. The method in brief: as §1

A further experiment addresses T4, SIK3 (Homo sapiens, UniProt Q9Y2K2).
T4 construct: purchased Life Technologies
As to the kind of experiment: SIK3 kinase assay, IMAP fluorescence polarization. Conditions: 50 or 100 μM ATP, average. Put shortly:
as §1

In a further experiment the target is T5, SIK1 (Homo sapiens, UniProt P57059).
T5 construct: purchased Life Technologies
As to the kind of experiment: SIK1 kinase assay, IMAP fluorescence polarization. Conditions: 50 or 100 μM ATP, average. Put shortly:
as §1

Another experiment has as its target T6, EPHA2 (Homo sapiens, UniProt P29317).
T6 construct: purchased Life Technologies
The experiment is described as follows: EPHA2 kinase assay, IMAP fluorescence polarization. Conditions: 50 or 100 μM ATP, Tris pH 8.5, average.

The structures appear in SMILES notation.

T4 sequence (Q9Y2K2 whole entry): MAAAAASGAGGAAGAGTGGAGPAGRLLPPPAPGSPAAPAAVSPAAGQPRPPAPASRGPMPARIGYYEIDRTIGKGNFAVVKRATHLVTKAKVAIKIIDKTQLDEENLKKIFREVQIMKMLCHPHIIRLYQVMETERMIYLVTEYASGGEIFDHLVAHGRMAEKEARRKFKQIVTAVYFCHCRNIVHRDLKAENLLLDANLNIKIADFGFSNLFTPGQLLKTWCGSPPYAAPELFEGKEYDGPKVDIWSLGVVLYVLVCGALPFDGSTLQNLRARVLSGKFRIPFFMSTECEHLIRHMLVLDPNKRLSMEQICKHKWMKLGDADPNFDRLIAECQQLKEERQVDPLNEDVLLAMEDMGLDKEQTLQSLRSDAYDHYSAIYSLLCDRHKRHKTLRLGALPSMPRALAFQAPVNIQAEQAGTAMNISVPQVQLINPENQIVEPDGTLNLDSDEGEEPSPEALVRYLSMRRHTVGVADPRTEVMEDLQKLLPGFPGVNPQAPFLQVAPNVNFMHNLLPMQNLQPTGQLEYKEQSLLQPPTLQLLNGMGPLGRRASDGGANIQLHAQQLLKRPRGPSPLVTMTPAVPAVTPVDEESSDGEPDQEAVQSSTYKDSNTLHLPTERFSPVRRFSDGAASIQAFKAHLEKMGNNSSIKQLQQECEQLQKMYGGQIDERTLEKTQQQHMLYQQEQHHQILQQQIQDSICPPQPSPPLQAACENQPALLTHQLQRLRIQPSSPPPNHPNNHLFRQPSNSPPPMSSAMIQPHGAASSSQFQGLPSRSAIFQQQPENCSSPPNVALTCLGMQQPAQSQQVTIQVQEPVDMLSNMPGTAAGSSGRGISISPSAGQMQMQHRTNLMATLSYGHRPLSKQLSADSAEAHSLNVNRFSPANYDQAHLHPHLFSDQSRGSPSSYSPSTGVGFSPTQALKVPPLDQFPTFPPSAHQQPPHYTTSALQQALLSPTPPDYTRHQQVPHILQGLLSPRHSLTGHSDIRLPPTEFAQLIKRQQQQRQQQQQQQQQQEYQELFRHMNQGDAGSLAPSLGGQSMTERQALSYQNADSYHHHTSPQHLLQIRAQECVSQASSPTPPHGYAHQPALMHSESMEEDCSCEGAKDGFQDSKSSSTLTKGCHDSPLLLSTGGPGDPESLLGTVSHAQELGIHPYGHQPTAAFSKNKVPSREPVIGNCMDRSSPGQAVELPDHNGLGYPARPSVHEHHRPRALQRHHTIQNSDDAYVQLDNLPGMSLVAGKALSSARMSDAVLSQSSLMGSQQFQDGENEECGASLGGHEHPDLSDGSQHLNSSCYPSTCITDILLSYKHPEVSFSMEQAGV
T1 sequence (P00519 whole entry): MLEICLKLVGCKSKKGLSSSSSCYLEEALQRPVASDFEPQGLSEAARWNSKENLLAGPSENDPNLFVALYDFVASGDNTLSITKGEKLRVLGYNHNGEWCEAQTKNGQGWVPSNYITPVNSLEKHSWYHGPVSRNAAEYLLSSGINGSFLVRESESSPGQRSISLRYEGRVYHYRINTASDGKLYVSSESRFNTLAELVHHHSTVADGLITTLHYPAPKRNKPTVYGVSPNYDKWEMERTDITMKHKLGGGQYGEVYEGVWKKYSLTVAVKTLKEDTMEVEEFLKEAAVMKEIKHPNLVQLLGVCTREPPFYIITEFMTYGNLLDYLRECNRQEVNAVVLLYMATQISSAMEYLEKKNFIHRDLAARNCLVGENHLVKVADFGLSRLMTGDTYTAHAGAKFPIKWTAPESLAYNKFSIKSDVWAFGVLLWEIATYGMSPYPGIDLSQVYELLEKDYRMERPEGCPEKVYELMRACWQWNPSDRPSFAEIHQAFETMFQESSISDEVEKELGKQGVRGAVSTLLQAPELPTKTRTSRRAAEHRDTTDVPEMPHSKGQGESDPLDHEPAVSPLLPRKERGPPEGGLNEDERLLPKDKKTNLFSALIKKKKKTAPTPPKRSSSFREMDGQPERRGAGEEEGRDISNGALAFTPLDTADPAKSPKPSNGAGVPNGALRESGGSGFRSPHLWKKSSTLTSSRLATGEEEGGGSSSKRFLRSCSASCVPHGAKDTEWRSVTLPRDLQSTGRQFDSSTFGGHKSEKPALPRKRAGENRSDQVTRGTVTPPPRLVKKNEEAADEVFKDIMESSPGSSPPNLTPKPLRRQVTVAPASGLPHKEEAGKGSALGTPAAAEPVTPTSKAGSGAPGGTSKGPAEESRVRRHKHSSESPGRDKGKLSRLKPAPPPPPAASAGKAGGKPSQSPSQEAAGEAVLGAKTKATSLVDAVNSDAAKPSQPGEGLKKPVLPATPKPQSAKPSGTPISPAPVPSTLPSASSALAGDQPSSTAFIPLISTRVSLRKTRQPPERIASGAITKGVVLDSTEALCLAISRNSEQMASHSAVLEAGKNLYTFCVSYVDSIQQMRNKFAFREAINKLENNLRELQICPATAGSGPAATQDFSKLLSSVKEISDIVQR
T6 sequence (P29317 24-976): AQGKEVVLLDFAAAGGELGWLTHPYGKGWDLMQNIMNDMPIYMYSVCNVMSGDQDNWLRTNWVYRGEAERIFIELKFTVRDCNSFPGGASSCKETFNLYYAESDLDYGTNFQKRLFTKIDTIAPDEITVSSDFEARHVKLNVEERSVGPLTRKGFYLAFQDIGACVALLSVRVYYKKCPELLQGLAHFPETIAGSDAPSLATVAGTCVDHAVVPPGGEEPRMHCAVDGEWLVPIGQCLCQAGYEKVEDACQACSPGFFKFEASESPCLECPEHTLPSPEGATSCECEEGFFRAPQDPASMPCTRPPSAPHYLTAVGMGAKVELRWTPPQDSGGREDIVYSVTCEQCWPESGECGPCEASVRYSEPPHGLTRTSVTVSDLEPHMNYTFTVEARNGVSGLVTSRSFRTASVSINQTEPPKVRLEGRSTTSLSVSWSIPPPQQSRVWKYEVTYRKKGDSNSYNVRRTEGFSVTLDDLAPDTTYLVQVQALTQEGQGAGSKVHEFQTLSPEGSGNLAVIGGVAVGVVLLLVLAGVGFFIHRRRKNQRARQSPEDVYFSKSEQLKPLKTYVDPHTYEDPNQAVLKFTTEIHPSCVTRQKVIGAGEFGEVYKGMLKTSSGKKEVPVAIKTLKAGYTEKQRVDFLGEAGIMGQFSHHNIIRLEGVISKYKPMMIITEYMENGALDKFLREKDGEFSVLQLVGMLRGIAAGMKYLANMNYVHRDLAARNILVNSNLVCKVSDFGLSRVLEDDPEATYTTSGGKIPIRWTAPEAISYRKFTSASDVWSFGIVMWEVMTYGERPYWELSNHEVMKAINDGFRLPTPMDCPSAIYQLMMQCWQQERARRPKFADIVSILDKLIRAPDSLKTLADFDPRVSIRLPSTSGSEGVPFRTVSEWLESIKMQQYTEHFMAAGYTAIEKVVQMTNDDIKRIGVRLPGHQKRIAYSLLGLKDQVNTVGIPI

For the compound `Cc1cccc(F)c1-c1cc(NC2CCNCC2)c2cc(N)ncc2c1F` [Example 120, 8-Fluoro-7-(2-fluoro-6-methyl-phenyl)-N5-(4-piperidyl)isoquinoline-3,5-diamine], the Ki at Abl was greater than 1000 nM; on SIK2, 2.43 nM; on Src, greater than 1000 nM; at SIK3 it was 22.1 nM; at SIK1, 3.55 nM; on EPHA2, greater than 1000 nM.

For the compound `Cc1cccc(F)c1-c1cc(OC2CN(C)C2)c2cc(N)ncc2c1` [Example 102, 7-(2-fluoro-6-methyl-phenyl)-5-(1-methylazetidin-3-yl)oxy-isoquinolin-3-amine], the inhibition constant (Ki) on Abl was 24.6 nM; on SIK2 it was 0.219 nM; at Src it was 274 nM; at SIK3 it was 5.27 nM; on SIK1, 1.46 nM; on EPHA2, greater than 1000 nM.

For `Cc1cccc(F)c1-c1cc(NCC2CN(C)C2)c2cc(N)ncc2c1` [Example 72, 7-(2-fluoro-6-methyl-phenyl)-N5-[(1-methylazetidin-3-yl)methyl] isoquinoline-3,5-diamine], the Ki at Abl worked out at 1.83 nM; at SIK2, 0.117 nM; at Src, 40.1 nM; at SIK3, 1.29 nM; at SIK1, 0.627 nM; at EPHA2 it was 153 nM.

With `Cc1cccc(Cl)c1-c1cc(NC2CCNCC2)c2nc(N)ncc2c1` [Example 137, 6-(2-chloro-6-methyl-phenyl)-N8-(4-piperidyl)quinazoline-2,8-diamine], the Ki stood at 22.5 nM at Abl; 0.0693 nM on SIK2; 18.7 nM on Src; 0.51 nM on SIK3; 0.296 nM on SIK1; 9.22 nM on EPHA2.

Turning to `Cc1cccc(F)c1-c1cc(N[C@@H]2CCN(C)C2)c2cc(N)ncc2c1` [Example 69, 7-(2-fluoro-6-methyl-phenyl)-N5-[(3R)-1-methylpyrrolidin-3-yl]isoquinoline-3,5-diamine], the Ki at Abl was 5.14 nM; on SIK2 it was 0.0972 nM; at Src, 35.8 nM; on SIK3, 0.986 nM; at SIK1 it was 0.3 nM; at EPHA2, greater than 1000 nM.

Turning to `CC(=O)NC1CCN(c2cc(-c3c(C)cccc3F)cc3cnc(N)cc23)CC1` [Example 114, N-[1-[3-amino-7-(2-fluoro-6-methyl-phenyl)-5-isoquinolyl]-4-piperidyl]acetamide], the Ki at Abl is 16.4 nM; at SIK2, 0.617 nM; at Src, 1600 nM; on SIK3, 20.3 nM; on SIK1 it was 12 nM; on EPHA2, greater than 1000 nM.

`Cc1cccc(F)c1-c1cc(NC2CNC2)c2ccncc2c1` [Example 51, N-(azetidin-3-yl)-7-(2-fluoro-6-methyl-phenyl)isoquinolin-5-amine]: the Ki on Abl is 24.9 nM; on SIK2 it was 0.532 nM; on Src it was 220 nM; at SIK3, 3.16 nM; on SIK1, 2.81 nM; at EPHA2, 242 nM.

Consider `Cc1cccc(Cl)c1-c1cc(NC2CCN(C)CC2)c2ccncc2c1` [Example 66, 7-(2-chloro-6-methyl-phenyl)-N-(1-methyl-4-piperidyl)isoquinolin-5-amine], for which the Ki at Abl turned out to be 58.7 nM; on SIK2, 0.646 nM; at Src, 105 nM; on SIK3 it was 1.15 nM; at SIK1 it was 0.528 nM; on EPHA2, 54.9 nM.

As to `Cc1cccc(F)c1-c1cc(NC(=O)C2CCNCC2)c2cc(N)ncc2c1` [Example 44, N-[3-Amino-7-(2-fluoro-6-methyl-phenyl)-5-isoquinolyl]piperidine-4-carboxamide], the Ki worked out at 85.2 nM at Abl; 5.91 nM at SIK2; 291 nM on Src; 36.9 nM at SIK3; 15.4 nM on SIK1; 638 nM at EPHA2.

`Cc1cccc(F)c1-c1cc(NC2CCNCC2)c2cc(N)ncc2c1` [Example 1, 7-(2-Fluoro-6-methyl-phenyl)-N5-(4-piperidyl)isoquinoline-3,5-diamine]: the Ki on Abl amounted to 16.3 nM; on SIK2 it was 0.0518 nM; on Src, 153 nM; on SIK3 it was 0.352 nM; at SIK1, 0.364 nM; on EPHA2 it was 122 nM.

For the compound `Cc1cccc(F)c1-c1cc(NC2CCN(C)CC2)c2ncncc2c1` [Example 125, 6-(2-Fluoro-6-methyl-phenyl)-N-(1-methyl-4-piperidyl)quinazolin-8-amine], the Ki on Abl was greater than 1000 nM; on SIK2, 1.37 nM; at Src, greater than 1000 nM; at SIK3, 5 nM; at SIK1 it was 2.99 nM; at EPHA2, 244 nM.

`Cc1cccc(F)c1-c1cc(NC[C@@H]2CCNC2)c2cc(N)ncc2c1` [Example 6, 7-(2-fluoro-6-methyl-phenyl)-N5-[[(3R)-pyrrolidin-3-yl]methyl]isoquinoline-3,5-diamine]: the Ki on Abl stood at 0.298 nM; at SIK2, 0.0517 nM; on Src, 145 nM; at SIK3, 0.57 nM; at SIK1, 0.31 nM; on EPHA2, 49.5 nM.

Take `Cc1cccc(F)c1-c1cc(N2CCC[C@H](O)C2)c2cc(N)ncc2c1` [Example 107, (3S)-1-[3-amino-7-(2-fluoro-6-methyl-phenyl)-5-isoquinolyl]piperidin-3-ol]: the Ki is 56.4 nM on Abl; 4.46 nM on SIK2; 617 nM on Src; 201 nM on SIK3; 24.6 nM on SIK1; greater than 1000 nM on EPHA2.

As to `Cc1cccc(F)c1-c1cc(NC2CCNCC2)c2c(C#N)c(N)ncc2c1` [Example 133, 3-Amino-7-(2-fluoro-6-methyl-phenyl)-5-(4-piperidylamino)isoquinoline-4-carbonitrile], the Ki on Abl was 1.13 nM; on SIK2, 0.0609 nM; on Src, 6.32 nM; at SIK3, 0.271 nM; on SIK1, 0.348 nM; on EPHA2 it was 34.8 nM.

For the compound `Cc1cccc(F)c1-c1cc(NC[C@H]2CCCNC2)c2cc(N)ncc2c1` [Example 2, 7-(2-fluoro-6-methyl-phenyl)-N5-[[(3S)-3-piperidyl]methyl]isoquinoline-3,5-diamine], the Ki at Abl is 11.1 nM; on SIK2 it was 0.18 nM; at Src, 157 nM; at SIK3 it was 1.37 nM; at SIK1 it was 0.524 nM; on EPHA2, 64.6 nM.

With `Cc1cccc(Cl)c1-c1cc(NC2CCNCC2)c2ncncc2c1` [Example 138, 6-(2-chloro-6-methyl-phenyl)-N-(4-piperidyl)quinazolin-8-amine], the Ki on Abl is 545 nM; at SIK2 it was 3.12 nM; on Src it was 333 nM; at SIK3, 15.7 nM; on SIK1, 3.7 nM; at EPHA2, 93.4 nM.

Regarding `CN[C@@H]1CCCN(c2cc(-c3c(C)cccc3F)cc3cnc(N)cc23)C1` [Example 19, 7-(2-fluoro-6-methyl-phenyl)-5-[(3R)-3-(methylamino)-1-piperidyl]isoquinolin-3-amine], the Ki was 24.6 nM on Abl; 0.113 nM at SIK2; 306 nM at Src; 4.45 nM on SIK3; 0.476 nM on SIK1; greater than 1000 nM at EPHA2.

Take `Cc1cccc(F)c1-c1cc(NC[C@H]2CCCN(C)C2)c2cc(N)ncc2c1` [Example 77, 7-(2-fluoro-6-methyl-phenyl)-N5-[[(3R)-1-methyl-3-piperidyl]methyl] isoquinoline-3,5-diamine]: the Ki at Abl was 26.5 nM; on SIK2, 0.302 nM; on Src, 197 nM; on SIK3, 3.74 nM; at SIK1, 1.13 nM; on EPHA2, 80.1 nM.

Consider `Cc1cccc(F)c1-c1cc(NC2CCN(C)CC2)c2nc(N)ncc2c1` [Example 132, 6-(2-fluoro-6-methyl-phenyl)-N8-(1-methyl-4-piperidyl)quinazoline-2,8-diamine], for which the Ki on Abl was determined as 8.63 nM; at SIK2 it was 0.0399 nM; on Src, 46.3 nM; on SIK3, 0.45 nM; at SIK1 it was 0.317 nM; at EPHA2, 58.8 nM.
